Experiments:
Type in all cases: biochemical
PDGFR-β kinase = biological target: T1, PDGFR-β kinase (Homo sapiens, UniProt P09619); test: PDGFR-β kinase assay (33P incorporation into Poly(Glu-Tyr)); settings: 500 nM test compound
T1 construct: recombinant N-terminal 6×His-tagged PDGFR-β kinase domain construct expressed by baculovirus; 6xHis (N); made in house
Method in brief: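 His-tagged PDGFR-β kinase domain (55 ng) with Poly(Glu-Tyr) 4:1, 30 μM ATP plus [33P]-γ-ATP, pH 7.0 MnCl2 buffer, and 500 nM compound for 30 min at 30° C. Filter-bound radioactivity counted; inhibition computed relative to DMSO control.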

Flt3 kinase = biological target: T2, Flt3 kinase (Homo sapiens, UniProt P36888); test: Flt3 kinase assay (33P incorporation into Poly(Glu-Tyr)); settings: 100 nM test compound; read-out: Inhibition at 100 nM (%) Flt-3
T2 construct: recombinant N-terminal 6×His-tagged Flt3 kinase domain construct expressed from baculovirus; 6xHis (N); made in house
T2 sequence (P36888 610-943 limits assumed): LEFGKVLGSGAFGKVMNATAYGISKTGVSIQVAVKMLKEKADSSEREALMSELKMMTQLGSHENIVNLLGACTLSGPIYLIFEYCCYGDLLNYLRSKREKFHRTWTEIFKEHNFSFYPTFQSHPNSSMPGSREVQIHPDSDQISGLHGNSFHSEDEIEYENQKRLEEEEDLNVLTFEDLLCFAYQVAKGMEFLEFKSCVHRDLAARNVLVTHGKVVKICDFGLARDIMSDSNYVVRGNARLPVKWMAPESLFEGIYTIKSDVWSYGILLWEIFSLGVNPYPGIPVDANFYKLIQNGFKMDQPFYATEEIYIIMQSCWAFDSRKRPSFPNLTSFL
Method in brief: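 Baculovirus-expressed His-tagged Flt3 kinase domain (5 ng) with Poly(Glu-Tyr) 4:1 substrate, 100 μM ATP plus [33P]-γ-ATP, in MOPS pH 7.0 buffer, 30 min at 30 °C. Compound tested at a single 100 nM concentration; filter-bound radioactivity counted and percent inhibition calculated relative to DMSO control.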

VEGFR2 kinase = biological target: T3, VEGFR2 kinase (Homo sapiens, UniProt P35968); test: VEGFR2 kinase assay (33P incorporation into Poly(Glu-Tyr)); settings: 500 nM test compound; read-out: Inhibition at 500 nM (%) VEGFr-2
T3 construct: recombinant N-terminal 6×His-tagged VEGFR2 kinase domain construct expressed by baculovirus; 6xHis (N); made in house
Method in brief: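 Recombinant baculovirus-expressed N-terminal His6-tagged VEGFR2 kinase domain (6.25 ng) phosphorylated poly(Glu-Tyr) 4:1 with 100 μM ATP plus [33P]-γ-ATP in MOPS pH 7.0, 30 °C, 30 min. Test compound was at 500 nM (4% DMSO). Filter-retained radioactivity relative to DMSO control gave % inhibition.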

T1 sequence (P09619 600-962 limits assumed): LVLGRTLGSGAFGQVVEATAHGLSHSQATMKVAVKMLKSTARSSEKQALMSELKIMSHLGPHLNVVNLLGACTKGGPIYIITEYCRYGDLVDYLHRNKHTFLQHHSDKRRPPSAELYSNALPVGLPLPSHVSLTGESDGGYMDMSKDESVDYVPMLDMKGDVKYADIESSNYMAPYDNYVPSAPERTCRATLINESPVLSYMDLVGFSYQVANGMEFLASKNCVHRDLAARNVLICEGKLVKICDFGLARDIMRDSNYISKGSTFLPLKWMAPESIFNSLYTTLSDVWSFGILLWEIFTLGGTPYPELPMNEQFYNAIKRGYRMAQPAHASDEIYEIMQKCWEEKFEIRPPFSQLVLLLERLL
T3 sequence (P35968 834-1162 limits assumed): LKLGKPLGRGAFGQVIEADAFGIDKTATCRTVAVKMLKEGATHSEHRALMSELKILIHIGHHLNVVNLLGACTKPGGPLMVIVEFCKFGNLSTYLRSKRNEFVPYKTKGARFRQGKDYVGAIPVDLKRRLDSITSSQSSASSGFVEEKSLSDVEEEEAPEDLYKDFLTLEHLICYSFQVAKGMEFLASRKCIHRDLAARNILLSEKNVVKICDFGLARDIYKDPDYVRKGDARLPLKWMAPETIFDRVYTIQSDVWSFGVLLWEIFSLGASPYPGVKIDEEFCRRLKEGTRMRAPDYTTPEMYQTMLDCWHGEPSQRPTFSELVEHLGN

inhibition at 0.5 µM (PDGFR-β kinase) | inhibition at 0.1 µM (Flt3 kinase) | inhibition at 0.5 µM (VEGFR2 kinase) | Structure (SMILES)
1.4% | 10.7% | 28.9% | CCOC(=O)CCc1c(/C=C2\C(=O)Nc3ccc(NC(=O)c4ccc(OC)cc4)cc32)[nH]c2c1C(=O)CCC2 [DCB-70141, (Z)-ethyl 3-(2-((5-(4-methoxybenzamido)-2-oxoindolin-3-ylidene)methyl)-4-oxo-4,5,6,7-tetrahydro-1H-indol-3-yl)propanoate]
1% | 6% | 38.1% | COc1ccc(C(=O)Nc2ccc3c(c2)/C(=C/c2[nH]c4c(c2CCC(=O)O)C(=O)CCC4)C(=O)N3)cc1 [DCB-70143, (Z)-3-(2-((5-(4-methoxybenzamido)-2-oxoindolin-3-ylidene)methyl)-4-oxo-4,5,6,7-tetrahydro-1H-indol-3-yl)propanoic acid]
16.1% | 9.7% | 67.6% | CN(c1cccc(Cl)c1)S(=O)(=O)c1ccc2c(c1)/C(=C/c1[nH]c3c(c1CCC(=O)O)C(=O)CCCC3)C(=O)N2 [DCB-70148, (Z)-3-(2-((5-(N-(3-chlorophenyl)-N-methylsulfamoyl)-2-oxoindolin-3-ylidene)methyl)-4-oxo-1,4,5,6,7,8-hexahydrocyclohepta[b]pyrrol-3-yl)propanoic acid]
10.8% | 7.3% | 57.5% | O=C(O)CCc1c(/C=C2\C(=O)Nc3ccc(S(=O)(=O)Nc4ccc(F)c(Cl)c4)cc32)[nH]c2c1C(=O)CCCC2 [DCB-70149, (Z)-3-(2-((5-(N-(3-chloro-4-fluorophenyl)sulfamoyl)-2-oxoindolin-3-ylidene)methyl)-4-oxo-1,4,5,6,7,8-hexahydrocyclohepta[b]pyrrol-3-yl)propanoic acid]

From US7897602B2, “Indolinone compounds as kinase inhibitors” (Development Center for Biotechnology, priority 2009, dated 2011)
